Results published in patent publication US8367659B2, “Oxazinyl isoflavonoid compounds, medicaments and use” (Marshall Edwards, Inc., priority 2007, dated 2013).

Legend:
[1] = system: TNFα synthesis in human peripheral blood monocytes; experiment: Synthesis of TNFα by human monocytes stimulated with LPS; format: cell-based; conditions: FIGS. 1a, 1b
Protocol: Human peripheral blood monocytes were isolated from buffy coats by lyrnpboprep gradient separation of mononuclear cells followed by counter-current centrifugal elutriation (Demasi et al. 2000). Test compounds were dissolved in DMSO and added to fresh monocytes to achieve concentrations of 0, 10 and 100 μM. After 30 min, LPS was added to achieve a final concentration of 200 ng/mL. After 1 h, supernatants were removed and TNFα measured by ELISA previously described (Demasi et al. 2003). ANOVA followed by Newman-Keuls multiple comparisons test was used to examine differences between doses and the control values.

[2] = system: T cells; experiment: T cell proliferation (ConA-stimulated mouse splenocytes, MTT); format: cell-based, Skh-1:HR 1 (hairless) mice; conditions: 10 μM, 3 days
Protocol: (§1) Male Skh-1:HR 1 (hairless) mice, approximately six weeks old were killed by cervical dislocation. Single cell suspensions were made from the spleen and erythrocytes were lysed in buffer (0.14 M NH4Cl, 17 mM Tris, pH 7.2). The remaining splenocytes were cultured in RPMI-1640 (Gibco) supplemented with 10% (v:v) FBS, 200 mM L-glutamine, penicillin/streptomycin and […] 2-mercaptoethanol. Splenocytes were added to quadruplicate wells containing either concanavalin A (ConA, Sigma-Aldrich—0.4 μg/well), LPS (Sigma-Aldrich—1 μg/well) or no mitogen, as well 10 μM of test compound in DMSO. Samples were analysed after 3 days incubation at 37° C. in 5% CO2 in air. Methylthiazoletetrazolium (MTT) is bioreduced by viable cells into a coloured formazan product that is soluble in DMSO. Thus the quantity of formazan product is directly proportional to the number of living cells in culture, and can be measured using a spectrophotometer at 570 nm. MTT was added to each well, incubated for a further 4 hrs and then colour developed with 0.04 N HCl in isopropanol. Culture supernatants were stored after collection at −80° C. and analysed by ELISA (BD Biosciences) for IFN-γ (a Th-1 cytokine) and for T cells alone, IL-6 (a Th-2 cytokine).

[3] = system: IFN-γ; experiment: IFN-γ synthesis by mouse splenocytes (ELISA); format: cell-based, Skh-1:HR 1 (hairless) mice; conditions: 10 μM; 3 days
Protocol: as §1

[4] = system: VCAM; experiment: TNFα-induced VCAM expression in human arterial endothelial cells (ELISA); format: cell-based; conditions: HAEC; 10 μM found most appropriate for comparing
Protocol: Inhibition of TNFα-stimulated endothelial cell activation by compounds was assessed by measuring surface expression of cell adhesion molecules with an ELISA method. Human arterial endothelial cells (HAEC) in growth medium (Cell Applications Inc.) were seeded into 96-well plates at a density of 10,000 cells per well. Plates were incubated overnight at 37° C. in a humidified incubator to allow for cells to become confluent. On the morning of the experiment, TNFα (10 μl, 2 ng/ml) was added to each well, which contained 100 μl of medium. Compounds were diluted in DMSO-containing medium (2.5% DMSO) to give a compound concentration of 100 and 300 μM. Compounds were added to wells so that final concentrations were 10 and 30 μM. DMSO-containing medium alone was added to zero concentration control wells. All samples were measured in quadruplicate (4 wells per treatment).
After incubation with compound, medium was removed and cells were probed with either non-specific IgG or specific mouse antibodies against E-selectin, ICAM or VCAM (BD Biosciences—0.1 μg in 100 μL buffered saline with 10% heat-inactivated human serum). Adhesion molecule expression was detected by addition of sheep anti-mouse antibody/horseradish peroxidase conjugate. […] Optical density was measured at 405 nm with an ELISA reader (Titertek Multiscan, Flow Laboratories). […]

| Compound | effect on synthesis of TNFα [1] | effect on T cells [2] | synthesis of INF-γ into the supernatant [3] | effect on TNFα-induced VCAM expression [4] |
| --- | --- | --- | --- | --- |
| CC(c1ccccc1)N1COc2cc3c(cc2C1)C=C(c1ccc(O)cc1)CO3 (stereo not shown) [Compound 2, 4-(3-(1-Phenylethyl)-2,3,4,8-tetrahydrochromeno[6,7-e][1,3]oxazin-7-yl)phenol] | reduce the synthesis of TNFα | markedly and significantly immunosuppressive | concomitant reduction |  |
| Oc1cccc(C2=Cc3ccc(O)cc3OC2)c1 [Compound 37-DHE, 3′,7-dihydroxy-isoflav-3-ene, reference compound] |  |  |  | less pronounced |
